Assay results: US20210071180A1, “MICRORNA 584-5P COMPOSITIONS AND METHODS FOR TREATING CANCER” (BOARD OF REGENTS, THE UNIVERSY OF TEXAS SYSTEM, priority 2018, published 2021)

Key:
Assay type in all cases: cell-based
[1] = system: D425Med and D458Med cells; assay: Gene expression profiling (Illumina HT-12 v4 BeadChip)
Method: Data are z-transformed. The cutoff criteria for each gene are fold change >2, sample intensity >10, and p-value <0.05. […] To validate the gene expression analysis and target prediction results, it was determined whether miR-584-5p reduced HDAC1/eIF4E3 expression by binding to their 3′-untranslated regions (3′-UTRs). […] Also shown are the portion of the miR-584-5p sequence (SEQ ID NO: 15; UAUGGUU) that binds to the wild-type 3′UTR and seed sequence mutant (SEQ ID NO: 16; […], top panel; and SEQ ID NO: 17; […]; bottom panel). Also shown is miR-584-5p seed sequence mutated sequences. […] Values were normalized to firefly luciferase, which served as an internal control. The p-values were calculated using standard Student t-tests. Error bars represent mean±SEM. […] The p-values were calculated using standard Student t-tests.

MB cells = assay: 53BP1 nuclear foci immunofluorescence (DNA strand breaks); conditions: vs scrambled-transfected MB cells
Method: FIG. 13C-D show representative immunofluorescence images showing 53BP1 foci in D556Med cells transfected with miR-NC or miR-584-5p mimic (C) or scramble-siRNA or eIF4E3/HDAC1-siRNAs (D) and treated with or without 10 Gy of IR.
Bar graphs next to images show average number of 53BP1 foci/cell. The p-values were determined by two-way ANOVA followed by Sidak's multiple-comparisons test. Error bars represent mean±SEM. Because miR-584-5p induces apoptosis, it was reasoned that DNA strand breaks induced by miR-584-5p and eIF4E3/HDAC1 silencing may not be properly repaired. To confirm those findings, a functional assay was performed to monitor homologous recombination (HR) because HR-dependent events repair IR-induced double-strand breaks in G2 phase. The ISceI-based DR-GFP reporter assay, which measures the frequency of double-strand break repair by HR (Gunn, A., Bennardo, N., Cheng, A. & Stark, J. M. Journal of Biological Chemistry 286, 42470-42482, (2011); Pierce, A. J., Johnson, R. D., Thompson, L. H. & Jasin, M. Genes & Development 13, 2633-2638, (1999); and Stark, J. M., Pierce, A. J., Oh, J., Pastink, A. & Jasin, M. Molecular and Cellular Biology 24, 9305-9316, (2004)), was used. […] The p-values were calculated using either Student t-tests (mimic) or one-way ANOVA followed by Dunnett's multiple-comparisons test (siRNAs). […]

MB stem cells = assay: Medullosphere (tumor sphere) formation in serum-free stem cell media; conditions: D556Med cells
Method: Several research groups have posited the presence of tumor-initiating cells in MBs (Manoranjan, B. et al. Pediatr Res 71, 516-522, (2012)). Moreover, the tumor-initiating cells in general have not responded to radiation and chemotherapy drugs (Manoranj an, B. et al. Pediatr Res 71, 516-522, (2012)). Therefore, it was tested whether miR-584 may inhibit MB tumor-initiating cell proliferation. Consistent with the characteristics of tumor-initiating cells, MB cells cultured in serum-free stem cell media formed tumor spheres that were serially passaged for many cycles (FIG. 14A). Bar graphs show number and size of medullospheres obtained from D556Med cells transfected with miR-NC or miR-584-5p mimic. The p-value was calculated using a standard Student t-test. Error bars represent mean±SEM. […] The p-value was calculated using one-way ANOVA followed by Sidak's multiple-comparisons test. Error bars represent mean±SEM. These findings are highly significant because, this study is one of the first to propose a role for miR-584-5p and its target genes in regulating MB stem cell proliferation.

D556Med cells = assay: c-Myc overexpression rescue, cell viability/clonogenic/migration; conditions: cells transfected with c-Myc expression vector
Method: FIG. 15A depicts a photomicrograph showing migrated MB cells transfected with control plasmid, c-Myc overexpression plasmid or c-Myc overexpression plasmid+miR-584-5p mimic.
Because c-Myc supports cancer stem cell growth, promotes radioresistance (Gravina, G. L. et al. Radiat Res 185, 411-422, (2016)), and has elevated levels in VCR-resistant cancer cells (He, Y., Zhang, J., Zhang, J. & Yuan, Y. Chin Med J (Engl) 113, 848-851 (2000)), it was tested whether miR-584-5p and its target genes may regulate c-Myc-amplified MB growth and therapy sensitization by targeting c-Myc levels/functions. […] In FIG. 14D, the p-values were calculated using standard Student t-tests. Error bars represent mean±SEM. Because no predicted miR-584-5p binding site exists in the c-Myc 3′-UTR, miR-584-5p probably regulates c-Myc levels indirectly. To test that possibility, it was assessed whether miR-584-5p target genes may regulate c-Myc levels in MB. Moreover, eIF4E1 (not eIF4E3) induced c-Myc protein expression in diffuse B-cell lymphoma cells (Landon, A. L. et al. Nat Commun 5, 5413, (2014)). […] Cell viability was assessed using alamarBlue. The p-value was calculated using one-way ANOVA followed by Sidak's multiple-comparisons test. […]

Which results are given for “miR-584-5p: microRNA mimic; nucleotide sequence UUAUGGUUUGCCUGGGACUGAG (SEQ ID NO: 1); purchased from Thermofisher (chemistry not given here)”?
TUBB4 expression ([1]; confirmed by real-time PCR): among the highly downregulated genes; FOXO1 levels ([1]; miR-584-5p-treated MB cells): did not change; 53BP1 foci (MB cells): significantly more 53BP1 foci; number and size of medullospheres / MB stem cell proliferation (MB stem cells): significantly smaller and fewer spheres; growth-promoting effect of c-Myc overexpression (D556Med cells): rescues cancer growth-promoting effects of c-Myc
